Assay: xn = mol fraction of the nth substance listed
Details: 101 kPa, Liquid; for mass density: Vibrating tube method; for viscosity: Falling or rolling sphere viscometry

CC(C)CO [2-methyl-1-propanol] + CCC(C)O
Details	mass density [kg/m3]	viscosity [mPa·s]
303.15 K, x2 = 0.1009	794.484	–
303.15 K, x2 = 0.2	794.891	–
303.15 K, x2 = 0.3008	795.309	–
303.15 K, x2 = 0.4	795.723	–
303.15 K, x2 = 0.5002	796.151	–
303.15 K, x2 = 0.5999	796.585	–
303.15 K, x2 = 0.7004	797.029	–
303.15 K, x2 = 0.8007	797.475	–
303.15 K, x2 = 0.9005	797.918	–
308.15 K, x2 = 0.1009	790.501	2.443
308.15 K, x2 = 0.2	790.872	2.386
308.15 K, x2 = 0.3008	791.253	2.337
308.15 K, x2 = 0.4	791.633	2.292
308.15 K, x2 = 0.5002	792.024	2.248
308.15 K, x2 = 0.5999	792.423	2.206
308.15 K, x2 = 0.7004	792.831	2.168
308.15 K, x2 = 0.8007	793.242	2.139
308.15 K, x2 = 0.9005	793.65	2.127
313.15 K, x2 = 0.1009	786.45	2.107
313.15 K, x2 = 0.2	786.78	2.053
313.15 K, x2 = 0.3008	787.122	2.005
313.15 K, x2 = 0.4	787.465	1.962
313.15 K, x2 = 0.5002	787.818	1.92
313.15 K, x2 = 0.5999	788.177	1.881
313.15 K, x2 = 0.7004	788.546	1.845
313.15 K, x2 = 0.8007	788.917	1.816
313.15 K, x2 = 0.9005	789.288	1.804
318.15 K, x2 = 0.1009	782.34	1.824
318.15 K, x2 = 0.2	782.624	1.772
318.15 K, x2 = 0.3008	782.922	1.727
318.15 K, x2 = 0.4	783.222	1.685
318.15 K, x2 = 0.5002	783.533	1.646
318.15 K, x2 = 0.5999	783.848	1.608
318.15 K, x2 = 0.7004	784.171	1.575
318.15 K, x2 = 0.8007	784.497	1.551
318.15 K, x2 = 0.9005	784.827	1.54
323.15 K, x2 = 0.1009	778.155	1.59
323.15 K, x2 = 0.2	778.391	1.544
323.15 K, x2 = 0.3008	778.641	1.5
323.15 K, x2 = 0.4	778.895	1.46
323.15 K, x2 = 0.5002	779.158	1.422
323.15 K, x2 = 0.5999	779.423	1.387
323.15 K, x2 = 0.7004	779.696	1.357
323.15 K, x2 = 0.8007	779.974	1.336
323.15 K, x2 = 0.9005	780.258	1.326
328.15 K, x2 = 0.1009	773.896	1.393
328.15 K, x2 = 0.2	774.077	1.35
328.15 K, x2 = 0.3008	774.275	1.309
328.15 K, x2 = 0.4	774.479	1.27
328.15 K, x2 = 0.5002	774.689	1.235
328.15 K, x2 = 0.5999	774.903	1.204
328.15 K, x2 = 0.7004	775.122	1.178
328.15 K, x2 = 0.8007	775.348	1.161
328.15 K, x2 = 0.9005	775.581	1.152
333.15 K, x2 = 0.1009	769.551	1.225
333.15 K, x2 = 0.2	769.674	1.186
333.15 K, x2 = 0.3008	769.816	1.148
333.15 K, x2 = 0.4	769.965	1.112
333.15 K, x2 = 0.5002	770.119	1.079
333.15 K, x2 = 0.5999	770.277	1.051
333.15 K, x2 = 0.7004	770.441	1.029
333.15 K, x2 = 0.8007	770.611	1.014
333.15 K, x2 = 0.9005	770.793	1.006
338.15 K, x2 = 0.1009	765.116	1.082
338.15 K, x2 = 0.2	765.18	1.047
338.15 K, x2 = 0.3008	765.264	1.012
338.15 K, x2 = 0.4	765.355	0.9794
338.15 K, x2 = 0.5002	765.452	0.9497
338.15 K, x2 = 0.5999	765.551	0.9246
338.15 K, x2 = 0.7004	765.654	0.9053
338.15 K, x2 = 0.8007	765.765	0.8922
338.15 K, x2 = 0.9005	765.89	0.8861
343.15 K, x2 = 0.1009	760.581	0.9613
343.15 K, x2 = 0.2	760.585	0.9301
343.15 K, x2 = 0.3008	760.608	0.8988
343.15 K, x2 = 0.4	760.64	0.8691
343.15 K, x2 = 0.5002	760.676	0.8429
343.15 K, x2 = 0.5999	760.714	0.8207
343.15 K, x2 = 0.7004	760.754	0.8035
343.15 K, x2 = 0.8007	760.802	0.7921
343.15 K, x2 = 0.9005	760.867	0.7862

Source: the NIST ThermoML archive (doi:10.1021/je400423u)
